Experimental data taken from patent US20260014278A1, “HYBRID PEPTIDE DENDRIMER SYSTEMS AND EXTRAHEPATIC DELIVERY” (NUNTIUS THERAPEUTICS LIMITED, priority 2022, published 2026).

Tests used:
[1] = Zeta potential of nanoparticles (electrophoretic light scattering); assay type: physicochemical
Excerpt: Zeta potential is a measurement of the magnitude of the electrostatic or charge repulsion/attraction between particles. This can be determined by analysing particle mobility and charge (Zeta potential) using the Electrophoretic Light Scattering (ELS) technique.
Zeta potential is a measurement of the magnitude of the electrostatic or charge repulsion/attraction between particles. This can be determined by analysing particle mobility and charge (Zeta potential) using the Electrophoretic Light Scattering (ELS) technique. […] Parameters: reference material: polystyrene latex, dispersant: water, 25° C. The measurements of the zeta potential were carried out using the Zetasizer Advance Series—Pro (Malvern Panalytical Ltd, Malvern, UK) according to the manufacturer's instructions.

[2] = Dynamic light scattering: hydrodynamic size and polydispersity index (PDI) of nanoparticles; assay type: physicochemical; conditions: for Pdl / Z-average diameter: GSCG1,2-RHL N:P 0.6:1, DOTMA:DOPE nanoparticles, coating mol ratio 2.06 to mRNA P where coated; for Polydispersity Index (PDI): peptide dendrimer, lipid and mRNA complexes, N:P 8:1, DOTMA/DOPE w/w 10:1 to mRNA
Description: (§1) The hydrodynamic size was measured using the dynamic light scattering (DLS) technique. DLS is a very sensitive, non-invasive method to measure size and size distribution of nanoparticles in a liquid. […] Analysing these intensity fluctuations allows us to calculate the velocity of the Brownian motion. The size of the nanoparticles can be determined by using the Stokes-Einstein relationship. With the latest technology, it can measure nanoparticles smaller than 1 nm.
PDI is used to estimate the average uniformity of a particle solution, The method of cumulants is a standard technique for analysing DLS data on sample polydispersity. PDI is a number calculated from a 2 parameter fit to the correlation data (the cumulants analysis). The cumulants analysis is used to evaluate the autocorrelation function generated by a DLS experiment. The calculation is defined in ISO 13321 and ISO 22412. PDI values greater than 0.7 indicate that the sample has a very broad size distribution and is not suitable for the DLS technique. The calculations for these parameters are defined in the ISO standard document 13321:1996 E and ISO 22412:2008.
as §1, with “Size, zeta potential and polydispersity index (PDI) measurement: The hydrodynamic” for “The hydrodynamic”, “scattering (DLS) technique using the Zetasizer Advance Series—Pro (Malvern Panalytical Ltd, Malvern, UK) according to the manufacturer's instructions. DLS is” for “scattering (DLS) technique. DLS is”
The data obtained with DLS measurements can also be used to calculate the PDI of particle in solution. PDI is used to estimate the average uniformity of a particle solution. The method of cumulants is a standard technique for analysing DLS data on sample polydispersity. PDI is a number calculated from a 2 parameter fit to the correlation data (the cumulants analysis). The cumulants analysis is used to evaluate the autocorrelation function generated by a DLS experiment. The calculation is defined in ISO 13321 and ISO 22412. PDI values greater than 0.7 indicate that the sample has a very broad size distribution and is not suitable for the DLS technique. The calculations for these parameters are defined in the ISO standard document 13321:1996 E and ISO 22412:2008.
To measure the size and PDI, the samples were diluted 16× in 25 mM HEPES buffer (5 μl sample+75 μl buffer). Parameters: reference material: polystyrene latex, dispersant: water, 25° C. The PDI measurements were measured in nanoparticles comprising a dendrimer:nucleic acid NP ratio of 8:1.

[3] = system: Mouse muscle cells (C2c12); experiment: eGFP expression (RFU/mg) in C2c12 muscle cells, muscle-targeting dendrimers; assay type: cell-based; conditions: N:P=0.6:1, DOTMA:DOPE w/w 10:1, 24 hours post-transfection
Description: Cell lines, transfection reagents and mRNA. C2c12 cells were maintained in DMEM medium with 10% (v/v) FCS and 1% (v/v) L-glutamine in a humidified atmosphere in 5% CO2, and 37° C. The Alexa Fluor 488 tagged mRNA, expressing an eGFP, was purchased from RiboPro. The mRNA either expressing an eGFP or firefly luciferase was purchased from Trilink. DOTMA:DOPE, 1:1 (w/w) were obtained from Invitrogen or Encapsula NanoSciences LLC.
Transfection procedure. 24 hours before transfection, C2c12 cells were seeded in 96well plates in order to reach 70% confluence. mRNA transfection complexes were formed by mixing mRNA with the dendrimers in 25 mM HEPES buffer, then with DOTMA:DOPE in 25 mM HEPES buffer at 25° C. The transfection complexes were then overlaid to the cells in full growth medium. The cells were harvested 4 hours after transfection for FACS analysis or 24 hours post transfection for reporter genes assays.
Two variants (NTX2 and NTX3) of the peptide dendrimer GSCG1,2-RL, 3-LR ((LR)8(KRL)4(KRL)2KGSC-NH2) were made which include the ASSLNIA (SEQ ID NO:1) muscle targeting peptide. Transfection of muscle cells with GSCG1,2-RL, 3-LR, NTX2 ((LR)8(KRL)4(KRL)2[…](Acp)-NH2) or NTX3 ((LR)8(KRL)4(KRL)2[…](Acp)-NH2) was performed using eGFP mRNA and transfection efficiency was assayed using either flow cytometry or the transgene expression assay. […]
Transgene expression assay: The cells were washed twice with PBS and incubated with 50 ul of 1× M-PER lysis buffer (Thermo 11874111). […] 40 ul of lysate from each well was transferred to all black 96 well plates for quantification of eGFP relative fluorescence unit (RFU), absorbance at 535 nm, using Molecular devices SpectraMax iD5.
Protein content determination: The protein content of each cell lysate was determined by mixing the lysate (25 μL) with Pierce™ BCA Protein Assay Kit (200 ul, Thermo Scientific). After 30 minutes of 37° C. incubation in at dark, absorbance was measured at 562 nm with Molecular devices SpectraMax iD5 and converted to protein concentration using a BSA standard curve. […]

[4] = GSCG1,2-RHL N:P 0.6:1, DOTMA:DOPE nanoparticles, coating mol ratio 2.06 to mRNA P where coated
[5] = GSCG1,2-RHL N:P 0.6:1, DOTMA/DOPE nanoparticles coated at 2.06:1 (dendrimer to mRNA)
[6] = GSCG1,2-RHL N:P 0.6:1, DOTMA/DOPE nanoparticles coated at 2.72:1 (dendrimer to mRNA)

Substance | Polydispersity Index (PDI) [2] | further results
(Ac-EEEE)2KGSGGSGGSACDCRGDCFCG-NH2 (Disulfide bridges: C1-C4, C2-C3) | – | zeta potential [1, 4]: −31.9 mV; Pdl [2]: 0.20; Z-average diameter [2]: 191 nm
(Ac-EEEE)2KGSGGSGGSC-NH2 | – | zeta potential [1, 5]: ~33.2 mV; zeta potential [1, 6]: ~35.4 mV; zeta potential [1, 4]: −29.3 mV; PDI [2, 5]: 0.12; size [2, 5]: 166 nm; PDI [2, 6]: 0.13; size [2, 6]: 169 nm; Pdl [2]: 0.16; Z-average diameter [2]: 165 nm
(BR)8(KRB)4(KRX)2KGSC-NH2 [GSCG1-RX, 2-RB, 3-BR] | 0.403 | –
(FR)8(KRQ)4(KRW)2KGSC-NH2 [GSCG1-RW, 2-RQ, 3-FR] | 0.452 | –
(HK)8(KKH)4(KKL)2KGSC-NH2 [GSCG1-KL, 2-KH, 3-HK] | 0.126 | –
(LR)2KRHC-NH2 [RHCG1-LR] | 0.577 | –
(LR)4(KRL)2KRHCGAASSLNIA-(Acp)-NH2 [NTX5] | – | increase in eGFP expression compared to RHCG1-RL, 2-LR ([3]; FIG. 10): ˜two-fold
(LR)8(DabRL)4(DabRL)2DabGSC-NH2 | 0.286 | –
(LR)8(KR)4(KRLR)2KRHC-NH2 [RHCG1-RLR, 2-R, 3-LR] | 0.439 | –
(LR)8(KR)4(KRLRL)2KRHC-NH2 [RHCG1-RLRL, 2-R, 3-LR] | 0.37 | –
(LR)8(KRL)4(KRE)2KGSC-NH2 [GSCG1-RE, 2-RL, 3-LR] | 0.158 | –
(LR)8(KRL)4(KRL)2KA-NH2 [AG1,2-RL, 3-LR] | 0.184 | –
(LR)8(KRL)4(KRL)2KGSCGAASSLNIA(Acp)-NH2 [NTX2] | – | increase in eGFP expression compared to GSCG1,2-RL, 3-LR ([3]; FIG. 9): two-fold
(LR)8(KRL)4(KRL)2KGSCRHCRFWRYM-NH2 [LinearG1,2-RL, 3-LR] | 0.289 | –
(MR)8(KRC)4(KRC)2KGSC-NH2 [GSCG1-RC, 2-RC, 3-MR] | 0.19 | –
(QR)8(KRT)4(KRY)2KGSC-NH2 [GSCG1-RY, 2-RT, 3-QR] | 0.178 | –
(R)8(KRL)4(KRLR)2KRHC-NH2 [RHCG1-RLR, 2-RL, 3-R] | 0.429 | –
(RL)8(KRL)4(KLR)2KGSC-NH2 [GSCG1-LR, 2,3-RL] | 0.417 | –
(RLR)2KRHC-NH2 [RHCG1-RLR] | – | PDI ([2]; Table 7, first generation dendrimers for mixed dendrimer nanoparticles): 0.766
(RR)4(KLL)2KGSC-NH2 [GSCG1-LL, 2-RR] | 0.087 | –
(WR)8(KRM)4(KRF)2KGSC-NH2 [GSCG1-RF, 2-RM, 3-WR] | 0.277 | –
(YR)8(KRT)4(KRQ)2KGSC-NH2 [GSCG1-RQ, 2-RT, 3-YR] | 0.409 | –
(lR)8(KrL)4(KRL)2KGSC-NH2 [GSCG1-Rl, 2-rL, 3-lR] | 0.241 | –
(lr)8(krl)4(krl)2kgsc-NH2 | 0.246 | –

Continued, in another order:

Polydispersity Index (PDI) [2] | Substance | further results
0.272 | (LR)8(KLR)4(KLR)2KGSC-NH2 [GSCG1,2,3-LR] | –
0.401 | (LR)8(KRL)4(KRL)2KRFW-NH2 [RFWG1,2-RL, 3-LR] | –
0.363 | (LR)8(KRL)4(KRL)2KRHC-NH2 [RHCG1,2-RL, 3-LR] | –
0.257 | (LR)8(KRL)4(KRL)2KRYM-NH2 [RYMG1,2-RL, 3-LR] | –
0.213 | (LR)8(KRL)4(KRL)2KYM-NH2 [YMG1,2-RL, 3-LR] | –
0.189 | (LRLR)4(KLRLR)2KGSC-NH2 [GSCG1,2-LRLR] | –
0.287 | (LRLR)8(KLRLR)4(KLRLR)2KGSC-NH2 [GSCG1,2,3-LRLR] | –
0.252 | (R)4(KR)2KRHC-NH2 [RHCG1,2-R] | –
0.396 | (R)8(KR)4(KR)2KRHC-NH2 [RHCG1,2,3-R] | –
0.242 | (RL)8(KLR)4(KLR)2KGSC-NH2 [GSCG1,2-LR, 3-RL] | –
0.214 | (RLR)4(KRLR)2KRHC-NH2 [RHCG1,2-RLR] | –
0.299 | (RLR)8(KRLR)4(KRLR)2KRHC-NH2 [RHCG1,2,3-RLR] | –
